Values of other authors, collected in patent publication US12071673B2, “Methods of diagnosis, selection, and treatment of diseases and conditions caused by or associated with methanogens” (Cedars-Sinai Medical Center, priority 2013, dated 2024).

Columns and labels:
methanogens = conditions: retrospective study, 10 days; for reduction in methane: breath methane

Compound	reduction in constipation symptoms (methanogens) [%]	reduction in methane (methanogens) [%]	reduction of proximal small bowel motility (average) (5 dogs, methane infused through mid-small bowel fistula) [%]	slowing of small intestinal transit (in vivo animal study, methane infused into the small intestine) [%]
neomycin	63	33		
C [methane]			59	59
CO[C@H]1/C=C/O[C@@]2(C)Oc3c(C)c(O)c4c(O)c(c5c(nc6cc(C)ccn65)c4c3C2=O)NC(=O)/C(C)=C\C=C\[C@H](C)[C@H](O)[C@@H](C)[C@@H](O)[C@@H](C)[C@H](OC(C)=O)[C@@H]1C [rifaximin]	56	28		
